# pEC50: −log10 of the molar value. “Also recorded” adds a separate entry of the source.
# Key:
# [1] = tested on: blood-stage P. falciparum (3D7 strain); assay: Malaria SYBR green I fluorescence (MSF) assay; type: cell-based, Plasmodium falciparum
# Method: For other parasites, L. donovani, strain MHOM/SD/62/1S-C12D, was grown as previously described. Plasmodium falciparum parasites of the 3D7 strain were cultured in RPMI 1640 medium supplemented with 37.5 mM HEPES, 10 mM D-glucose, 2 mM L-glutamine, 100 μM hypoxanthine, 25 μg/mL gentamicin, 4% (v/v) human serum and 0.25% (v/v) Albumax II, at a 2% haematocrit in an atmosphere of 1% 02, 3% CO2 and 96% N2. Staging and parasitemia of the in vitro culture were assessed by light microscopy of Giemsa-stained thin blood smears.
# (§1) Compounds were tested against the blood-stage Trypanosoma brucei (48 hr endpoint) and intra-erythrocytic asexual stages Plasmodium falciparum (3D7) using CellTiter-Glo® luminescent and Malaria SYBR green I fluorescence (MSF) assays, respectively. Similar methodology will be used for future experiments.
# (§2) MMV676477 was tested against several other parasites: the axenic amastigotes of Leishmania donovani and Leishmania tarentolae, blood-stage Plasmodium falciparum, and Trypanosoma brucei. The compound's activity was measured using alamarBlue®, Malaria SYBR green I fluorescence (MSF) and CellTiter-Glo® luminescent assays. […] In addition, MMV676477 has also been recently reported as having potent activity against Neospora caninum, Cryptosporidium parvum, Toxoplasma gondii, and Entamoeba histolytica.
# [2] = tested on: L. amazonensis promastigotes and amastigotes; assay: Tubulin intensity by confocal immunofluorescence microscopy; type: cell-based, Leishmania amazonensis; conditions: 24 h at EC50^72 h
# Method: (§3) Promastigotes or amastigotes were treated with the indicated compound concentrations and allowed to adhere to poly-L-lysine coated plates. All cells were fixed with 4% paraformaldehyde and permeabilized/blocked with 0.01% Triton X-100 and 2% BSA in PBS. Promastigotes and amastigotes were incubated with mouse anti-gp46 or anti-p8, respectively at 1:50 or 1:1000 and rat anti-alpha-tubulin antibody at 1:1000. Samples were then probed with A568 anti-mouse and […] secondary antibodies (Molecular Probes). DNA was labeled with Hoescht. Samples were visualized on a Zeiss LSM 880 Inverted confocal Airyscan microscope at 63×; full Z-thicknesses through parasites were obtained. […] For microscopic analysis of mitotic arrest, at least 200 parasites were analyzed per condition per experiment after 48 hrs incubation at compounds' EC50, and the average plus standard error for three experiments was calculated. Representative images were selected from the maximal intensity projections and linearly processed in Adobe Photoshop CS6.
# One reason why MMV676477 might affect parasite cell division is that, like paclitaxel, it might affect microtubule polymerization, either directly or indirectly. The degree to which MMV676477 affected microtubules polymerization in cells was examined. […] Centrifugation of these extracts allowed separation of insoluble polymeric (pellet) and soluble dimeric (supernatant) tubulin. […] The intensity of α-tubulin staining was examined by normalizing it to the intensity of a membrane protein (gp46 for promastigotes in FIG. 4D; p8 for amastigotes in FIG. 4E).
# [3] = tested on: blood-stage Trypanosoma brucei; assay: CellTiter-Glo luminescent assay; type: cell-based
# Method: The parasites were synchronized using sequential sorbitol lysis treatment, with experiments carried out at least one intra-erythrocytic cycle later. T. brucei single marker (SM) cells were maintained at log phase growth (<1.5×10^6 cells/mL) in HMI-19 media supplemented with 10% FBS (Gibco) and 2.5 μg/mL G418 (Life Technologies) at 37° C. and 5% CO2.
# as §1, §2
# purified porcine tubulin [4] = target: T1, purified porcine tubulin (Sus scrofa, UniProt P02550+P02554); assay: Fluorescent microtubule assembly assay; type: biochemical; conditions: mammalian tubulin, fluorescence micrographs
# T1 construct: purchased Cytoskeleton, Inc. T240
# Method: (§4) To determine the selectivity of MMV676477, purified porcine tubulin was exposed to a serial dilution of the drug (0 to 25 μM) and absorbance was measured at 340 nm over time. […] To ensure that the absorbance seen at 340 nm reflected microtubule formation and not precipitation, a fluorescent microtubule assembly assay was employed.
# purified porcine tubulin [5] = target: T1, purified porcine tubulin; assay: Tubulin polymerization turbidity assay, mammalian tubulin; type: biochemical
# Method: Tubulin polymerization assays were performed in 96-well half-area microplates (Costar) in a final volume of 100 μL. Briefly, Leishmanial or porcine tubulin (>99% pure, Cat. #T240, Cytoskeleton, Inc.) in 50 μL volume was pre-treated with drugs on ice for 5 minutes before adding 50 μL ice cold buffer, to provide a final concentration of 3 mg/ml tubulin in 80 mM PIPES pH 6.9, 2 mM MgCl2, 0.5 mM EGTA, 1 mM GTP, and 1% DMSO unless specified otherwise. The absorbance at 340 nm was recorded in a Synergy H1 microplate reader (BioTek) for up to 45 min at 37° C. (porcine tubulin) or 30° C. (L. tarentolae tubulin).
# as §4
# [6] = tested on: L. amazonensis promastigotes and amastigotes; assay: Microscopic analysis of cell division; type: cell-based, Leishmania amazonensis; conditions: 48 h at EC50^72 h
# Method: as §3
# The molecular target of MMV676477 was investigated.
# [7] = tested on: intracellular L. amazonensis amastigotes; assay: Intracellular washout assay (LD50); type: cell-based, Leishmania amazonensis
# Method: Intracellular LD50s were measured. Briefly, RAW 264.7 cells were seeded to 96-multiwell plates at a density of 2×10^5 cells/mL (200 μL) and starved overnight at 37° C. The cells were infected with metacyclic promastigotes at a Multiplicity of Infection (MOI) of 15 and incubated for another 24 h at 37° C. The plates containing infected RAW 264.7 cells/BM primary M #s were washed five times with serum-free DMEM. Serially diluted compounds were added, and plates were incubated at 37° C. for 72 hrs. Wells were washed five times with DMEM, and the RAW 264.7 cells were lysed with 100 μL of 2 mg/mL saponin in DMEM for 5 min at room temperature, and further lysis was stopped with 100% FBS. After centrifugation, 200 μL acidic promastigotes media was replaced, plates were incubated at 26° C. for 96 h. Fluorescence intensity (alamarBlue®) was measured as described above.
# All routine in vitro quantification of antileishmanial drug potency is quantification of “cytostatic” potency. […] Therefore, the cytocidal action of MMV676477 was quantified by obtaining an LD50 at 72 h (a Lethal Dose that kills 50% of the bulk population of the parasites relative to untreated control) and compared it to the known cytocidal drug amphotericin. An intracellular washout assay was employed. […] The ratio of LD50:EC50 was calculated for MMV676477 and amphotericin. Lower ratios indicate that the LD50 is similar to the EC50 value, meaning that the estimated EC50 values represent killing of the parasites rather than simple growth inhibition.
# [8] = target: purified L. tarentolae tubulin (Leishmania tarentolae, UniProt A0A640KCM0+A0A640KQN0); assay: Chemical cross-linking competition with SW223022 probe; type: binding; conditions: 100-fold excess of competitor
structure (smiles),measurement,setting,value
"CCc1c(C)nc(-n2nc(C)cc2NC(=O)c2ccccc2SC)[nH]c1=O [MMV676477, N-(1-(5-Ethyl-4-methyl-6-oxo-1,6-dihydropyrimidin-2-yl)-3-methyl-1H-pyrazol-5-yl)-2-(methylthio)benzamide]",activity against Plasmodium falciparum (in words),[1],nanomolar-range cytocidal potency; also recorded: broad activity; also recorded: nanomolar concentrations
same,tubulin intensity over control (DMSO-treated),[2],significant two-fold increase in tubulin intensity
same,activity against Trypanosoma brucei (in words),[3],nanomolar-range cytocidal potency; also recorded: broad activity; also recorded: nanomolar concentrations
same,microtubules formed vs control,purified porcine tubulin [4],many more microtubules were formed
same,pEC50,"purified porcine tubulin [5]; 3 mg/ml tubulin, 1% DMSO, A340",4.96
same,tubulin polymerization activity with detergent,purified porcine tubulin [5]; 0.01% Triton-X treatment,not affected
same,"Maximum absorbance (A340, 10% DMSO)",purified porcine tubulin [5]; mammalian tubulin,0.4
same,percentage of L. amazonensis undergoing cell division,[6],significant two-fold increase
same,LD50/EC50 ratio,[7]; intracellular amastigotes,1.2
same,LD50 72 h,"[7]; intracellular washout, 72 h",620 nM
same,competition with SW223022 probe (fluorescent tubulin band),[8],almost completely absent
